Measured values as given in patent US11548880B2, “Modulators of hemoglobin” (Global Blood Therapeutics, Inc., priority 2018, dated 2023).

Biological target: T1, Hb (Homo sapiens, UniProt P68871+P69905)
T1 construct: from tissue; host or cells: whole blood
Test: Whole blood assay: oxygen equilibrium curves (Hemox Analyzer), change in p50
Assay type: cell-based
Settings: whole blood incubated 1 h at 37° C., equimolar ratio of hemoglobin to compound
Method: Whole blood assay: Oxygen equilibrium curves (OECs) were collected using a TCS Hemox Analyzer (TCS Scientific Company, New Hope, Pa., USA) to measure changes in the binding affinity of O2 to Hb. Whole blood was incubated for 1 h at 37° C. with the indicated compounds in an equimolar ratio of hemoglobin to compound and diluted into TES (2-[[1,3-dihydroxy-2-(hydroxymethyl)propan-2-yl]amino]ethanesulfonic acid)/saline buffer prior to measurements. For example, for whole blood at 20% hematocrit [Hct], which corresponds to 1 mM Hb, a compound concentration of 1 mM was used (for example, for compounds 1-5), and the incubated sample diluted 50- to 100-fold. The concentration for compounds 6-44 (Diastereomers 1 and 2) varied but remained in equimolar ratio to hemoglobin. The diluted samples were then oxygenated with compressed air within the Hemox Analyzer and the OECs were collected during deoxygenation as previously described (Guarnone et al., Haematologica, 1995, 80, 426-430). p 50 (partial pressure of O2 at which Hb is 50% saturated with O2) values were obtained using a non-linear regression analysis. Percentage change in p50 [Δp50(%)] was calculated as follows: Δp50(%)=[(p50 of control)−p50 with compound)/p50 control]×100.

T1 sequence (P69905 2-142 limits assumed): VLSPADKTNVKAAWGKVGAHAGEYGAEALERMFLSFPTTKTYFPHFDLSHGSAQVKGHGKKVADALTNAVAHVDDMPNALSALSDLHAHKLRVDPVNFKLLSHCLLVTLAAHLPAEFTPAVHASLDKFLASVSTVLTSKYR
T1 sequence (P68871 2-147 limits assumed): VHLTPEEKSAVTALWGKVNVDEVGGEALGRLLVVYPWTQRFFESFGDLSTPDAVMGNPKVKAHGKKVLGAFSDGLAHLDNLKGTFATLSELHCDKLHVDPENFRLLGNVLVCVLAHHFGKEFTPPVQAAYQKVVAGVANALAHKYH

SMILES | Delta-p50 (%)
CC(O)c1ncccc1C(=O)N1CCOC[C@H]1COc1cccc(O)c1C=O (single isomer, unassigned) [41 (Diastereomer 1)] | 66.71
COCCc1ccccc1C(=O)N1CCCC[C@H]1COc1cccc(O)c1C=O [Compound 14, (S)-2-hydroxy-6-((1-(2-(2-methoxyethyl)benzoyl)piperidin-2-yl)methoxy)benzaldehyde] | 74.56
O=Cc1c(O)cccc1OC[C@@H]1CCCCN1C(=O)c1ccccc1C(O)CO (stereo partly drawn) [Compound 34, 2-{[(2S)-1-[2-(1,2-dihydroxyethyl)benzoyl]piperidin-2-yl]methoxy}-6-hydroxybenzaldehyde] | 79.46
N#CCCc1ccccc1C(=O)N1CCCC[C@H]1COc1cccc(O)c1C=O [Compound 15, (S)-3-(2-(2-((2-formyl-3-hydroxyphenoxy)methyl)piperidine-1-carbonyl)phenyl)propanenitrile] | 80.5
O=Cc1c(O)cccc1OC[C@@H]1COCCN1C(=O)c1nccnc1CCO [Compound 21, 2-hydroxy-6-{[(3S)-4-[3-(2-hydroxyethyl)pyrazine-2-carbonyl]morpholin-3-yl]methoxy}benzaldehyde] | 60.21
O=Cc1c(O)cccc1OC[C@@H]1CCCN1C(=O)c1ccccc1CO [Compound 26, 2-hydroxy-6-{[(2S)-1-[2-(hydroxymethyl)benzoyl]pyrrolidin-2-yl]methoxy}benzaldehyde] | 51.72
O=Cc1c(O)cccc1OC[C@H]1COCCN1C(=O)c1cccnc1CCO [Compound 37, 2-hydroxy-6-{[(3R)-4-[2-(2-hydroxyethyl)pyridine-3-carbonyl]morpholin-3-yl]methoxy}benzaldehyde] | 60.58
CC(O)c1ncccc1C(=O)N1CCOC[C@H]1COc1cccc(O)c1C=O (single isomer, unassigned) [41 (Diastereomer 2)] | 53.94
O=Cc1c(O)cccc1OCC1CSCCN1C(=O)c1ccccc1CO (stereo not shown) [Compound 40, 2-hydroxy-6-({4-[2-(hydroxymethyl)benzoyl]thiomorpholin-3-yl}methoxy)benzaldehyde] | 72.82
N#CCCc1ncccc1C(=O)N1CCCC[C@H]1COc1cccc(O)c1C=O [Compound 3, (S)-3-(3-(2-((2-formyl-3-hydroxyphenoxy)methyl)piperidine-1-carbonyl)pyridin-2-yl)propanenitrile] | 85.8
O=Cc1c(O)cccc1OC[C@@H]1CCCCN1C(=O)c1cccnc1CCN1CCCC1 [Compound 4, (S)-2-hydroxy-6-((1-(2-(2-(pyrrolidin-1-yl)ethyl)nicotinoyl)piperidin-2-yl)methoxy)benzaldehyde] | 75.5
CC(O)Cc1ncccc1C(=O)N1CCSC[C@H]1COc1cccc(O)c1C=O (single isomer, unassigned) [44 (Diastereomer 1)] | 66.57
O=Cc1c(O)cccc1OC[C@@H]1CCCCN1C(=O)c1ccccc1C(O)CO (single isomer, unassigned) [34 (Diastereomer 2)] | 81.59
N#CCCc1ncccc1C(=O)N1CCOC[C@H]1COc1cccc(O)c1C=O [Compound 28, 3-{3-[(3S)-3-[(2-formyl-3-hydroxyphenoxy)methyl]morpholine-4-carbonyl]pyridin-2-yl}propanenitrile] | 83.35
COCCc1ncccc1C(=O)N1CCCC[C@H]1COc1cccc(O)c1C=O [Compound 2, (S)-2-hydroxy-6-((1-(2-(2-methoxyethyl)nicotinoyl)piperidin-2-yl)methoxy)benzaldehyde] | 84.4
O=Cc1c(O)cccc1OC[C@@H]1CCCCN1C(=O)c1ccccc1CCO [Compound 6, (S)-2-hydroxy-6-((1-(2-(2-hydroxyethyl)benzoyl)-piperidin-2-yl)methoxy)-benzaldehyde] | 74.5

SMILES | Delta-p50 (%)
O=Cc1c(O)cccc1OC[C@@H]1CCCCN1C(=O)c1ccccc1C(O)CO (single isomer, unassigned) [34 (Diastereomer 1)] | 80.43
N#CCCc1ccccc1C(=O)N1CCOC[C@H]1COc1cccc(O)c1C=O [Compound 31, 3-{2-[(3S)-3-[(2-formyl-3-hydroxyphenoxy)methyl]morpholine-4-carbonyl]phenyl}propanenitrile] | 74.03
O=Cc1c(O)cccc1OC[C@@H]1CCCN1C(=O)c1nccnc1CCO [Compound 19, (S)-2-hydroxy-6-((1-(3-(2-hydroxyethyl)pyrazine-2-carbonyl)pyrrolidin-2-yl)methoxy)benzaldehyde] | 54.67
O=Cc1c(O)cccc1OC[C@@H]1CCCCN1C(=O)c1nccnc1CCO [Compound 7, (S)-2-hydroxy-6-((1-(3-(2-hydroxyethyl)pyrazine-2-carbonyl)piperidin-2-yl)methoxy)benzaldehyde] | 62.7
O=Cc1c(O)cccc1OC[C@@H]1COCCN1C(=O)c1nccnc1CO [Compound 33, 2-hydroxy-6-{[(3S)-4-[3-(hydroxymethyl)pyrazine-2-carbonyl]morpholin-3-yl]methoxy}benzaldehyde] | 49.03
COCCc1nccnc1C(=O)N1CCOC[C@H]1COc1cccc(O)c1C=O [Compound 27, 2-hydroxy-6-{[(3S)-4-[3-(2-methoxyethyl)pyrazine-2-carbonyl]morpholin-3-yl]methoxy}benzaldehyde] | 66.58
N#CCCc1nccnc1C(=O)N1CCOC[C@H]1COc1cccc(O)c1C=O [Compound 32, 3-{3-[(3S)-3-[(2-formyl-3-hydroxyphenoxy)methyl]morpholine-4-carbonyl]pyrazin-2-yl}propanenitrile] | 60.55
N#CCCc1ncccc1C(=O)N1CCC[C@H]1COc1cccc(O)c1C=O [Compound 30, (S)-3-(3-(2-((2-formyl-3-hydroxyphenoxy)methyl)-pyrrolidine-1-carbonyl)-pyridin-2-yl)propanenitrile] | 74.19
CC(O)Cc1ncccc1C(=O)N1CCOC[C@H]1COc1cccc(O)c1C=O (single isomer, unassigned) [42 (Diastereomer 2)] | 75.05
CC(O)Cc1ncccc1C(=O)N1CCOC[C@H]1COc1cccc(O)c1C=O (single isomer, unassigned) [42 (Diastereomer 1)] | 76.39
CC(O)Cc1ncccc1C(=O)N1CCSC[C@H]1COc1cccc(O)c1C=O (single isomer, unassigned) [44 (Diastereomer 2)] | 54.34
O=Cc1c(O)cccc1OCC1CSCCN1C(=O)c1ccccc1CO (single isomer, unassigned) [40 (Enantiomer 1), 2-hydroxy-6-((4-(2-(hydroxymethyl)benzoyl)-thiomorpholin-3-yl)-methoxy)benzaldehyde] | 64.31
O=Cc1c(O)cccc1OC[C@@H]1CCCN1C(=O)c1cccnc1CCO [Compound 9, (S)-2-hydroxy-6-((1-(2-(2-hydroxyethyl)-nicotinoyl)pyrrolidin-2-yl)methoxy)benzaldehyde] | 62.2
CC(O)c1ncccc1C(=O)N1CCSC[C@H]1COc1cccc(O)c1C=O (single isomer, unassigned) [43 (Diastereomer 2)] | 64.56
O=Cc1c(O)cccc1OC[C@@H]1COCCN1C(=O)c1ccccc1CCO [Compound 22, 2-hydroxy-6-{[(3S)-4-[2-(2-hydroxyethyl)benzoyl]morpholin-3-yl]methoxy}benzaldehyde] | 70.32
